# Data reported in US12144791B2, “KRAS agonists, pharmaceutical compositions, and uses in managing cancer” (Emory University, priority 2019, dated 2024).
# Columns and labels:
# human lung cancer cells = experiment: Screening of cytotoxicity by sulforhodamine B (SRB) assay; format: cell-based; details: among top 500 docked NCI small molecules
# Text: (§1) A library containing small molecules from the National Cancer Institute (NCI) was employed to dock the GTP/GDP binding pocket of KRAS (PDB ID code: 4EPT) using the University of California, San Francisco (UCSF) DOCK 6.1 program suite. The small molecules were ranked according to their energy scores. Top 500 small molecules with predicted binding energies were selected for screening of cytotoxicity in human lung cancer cells by sulforhodamine B (SRB) assay. […] This lead compound was named KRAS agonist-533 (KRA-533) (FIG. 1A). To test whether KRA-533 regulates KRAS activity in lung cancer cells, human lung cancer cell lines with or without KRAS mutation were treated with KRA-533 (10 μM) for 48 h. […] Cell proliferation was also measured following treatment of cells for 48 h using MTS Cell Proliferation Colorimetric Assay Kit.
# NSCLC cells [1] = experiment: Colony formation assay; format: cell-based, human; details: 10 μM, 10 days; A549, H358, H157, Calu-1, H1972 vs H292, HCC827, H1975, H322
# NSCLC cells [2] = experiment: MTS Cell Proliferation Colorimetric Assay; format: cell-based, human; details: 48 h
# Text: as §1
# KRAS K117A = molecular target: T1, KRAS K117A (Homo sapiens, UniProt P01116, K117A); experiment: Thermal shift assay, purified KRAS K117A; format: binding
# T1 construct: made in house
# Procedure: (§2) Melting temperature (Tm) values of DMSO control and 15 μM KRA-533 are shown.
# (§3) To further test this intracellularly, GFP-tagged WT, S17A, K117A and AA KRAS mutants were exogenously transfected into A549 cells. […] Activities of exogenous GFP-tagged WT and KRAS mutants were analyzed by Western blot using GFP antibody.
# KRAS S17A/K117A (AA) = molecular target: T2, KRAS S17A/K117A (AA) (Homo sapiens, UniProt P01116, K117A/S17A); experiment: Thermal shift assay, purified KRAS S17A/K117A (AA); format: binding
# T2 construct: made in house
# Procedure: as §2, §3
# KRAS G13D = KRAS G13D (Homo sapiens, UniProt P01116, G13D); experiment: In vitro cell-free GDP-GTP exchange, KRAS G13D; format: biochemical; details: with GEF (RASGRP1) and GAP (RASA1), 25° C., 60 min
# Procedure: GTPγS, purified GFP (RASGRP1, 180 nM) and GAP (RASA1, 180 nM) at 25° C. in the presence or absence of increasing concentrations of KRA-533.
# To test whether KRA-533 directly binds to KRAS, a thermal shift assay was employed. […] To further assess whether KRA-533 activates KRAS directly, an in vitro cell-free GDP-GTP exchange experiment was carried out. Purified WT, G12C, G12D or G13D mutant KRAS proteins were incubated with purified GEF (RASGRP1) and GAP (RASA1) proteins in reaction buffer containing [γ-35S]-GTP in the absence or presence of increasing concentrations of KRA-533 at 25° C. for 60 min. KRAS activity was quantified by liquid scintillation counting. […] These findings indicate that KRA-533 not only activates WT KRAS but also has the capacity to further enhance KRAS activity of mutant KRAS.
# [3] = tested on: A549, H157, Calu-1 and H292 cells; experiment: Western blot of pERK, apoptosis and autophagy markers in total lysate; format: cell-based, human; details: 0, 5, 10, 15 μM, 48 h
# Procedure: “0” means DMSO vehicle control. […] Expression levels of KRAS, pERK, active caspase 3, PARP cleavage, Beclin1, LC3-I and LC3-II in total lysate were analyzed by Western blot.
# (§4) Activated KRAS can trigger cell death via apoptosis and autophagy-associated cell death in cancer cells. To test whether KRA-533- activated KRAS promotes apoptosis and autophagic cell death, A549, H157, Calu-1 and H292 cells were treated with increasing concentrations of KRA-533 for 48 h, followed by analysis of KRAS activity, apoptosis and autophagy. […] Autophagy was measured by analysis of LC3-I/LC3-II and p62 following treatment of cells with KRA-533. It is well known that p62 is an autophagy receptor or substrate that can be degraded by autophagy. In addition to LC3-II, p62 was analyzed as another autophagy marker. […] To further quantify the level of autophagy, a GFP-LC3 construct was used to indicate autophagosomes. After treatment with KRA-533, GFP-LC3 redistributed from a diffuse staining pattern in the cytoplasm and nucleus to a cytoplasmic punctate structure that specifically labels pre-autophagosomal and autophagosomal membranes (i.e. GFP-LC3 vac cells). […] These findings indicate that, in addition to apoptosis, KRA-533 can also induce autophagic cell death.
# [4] = tested on: A549, H157, Calu-1 and H292 cells; experiment: Apoptosis by FACS analysis of Annexin V/PI staining; format: cell-based, human
# Procedure: as §4
# A549 cells = experiment: Apoptotic and autophagic cell death after KRAS shRNA knockdown; format: cell-based, human; details: G12S mutant KRAS depleted by KRAS shRNA; 15 μM, 48 h
# Procedure: To further test whether KRAS is a required target for KRA-533 to induce apoptotic and autophagic cell death, G12S mutant KRAS was depleted using KRAS shRNA from A549 cells, followed by treatment with KRA-533 (15 μM) for 48 h.
# [5] = tested on: lung tumors of LSL-KRASG12D LKB1fl/fl (KL) mice; experiment: Genetically engineered LSL-KRASG12D LKB1fl/fl (KL) mouse model; format: in vivo
# Procedure: After administration of adenovirus Cre recombinase in KL mice for 6 weeks, mice were treated with KRA-533 (20 mg/kg/d) for 8 weeks (n=6 each group). Survival of mice was calculated up to 8 weeks before euthanization in the control group versus the KRA-533 treatment group.
# It is reported that the co-occurrence of KRAS and LKB1(STK11) mutations could label a more aggressive molecular subtype of NSCLC. Around half of KRAS-mutant lung cancer patients also carry LKB1 mutations, therefore, it will be important to test whether KRA-533 is also effective for the treatment of KRAS-mutant lung cancers with mutation or loss. LSL-KRASG12D LKB1fl/fl (KL) mice were generated by intercrossing B6.129S4-Krastm3Tyj/J (KRASG12D) and FVB; 129S6-Stk11tm1Rdp/Nci (LKB1) strains two generations and genotyped to confirm homozygosity for the LKB1 allele. These mice contain a KRASG12D LSL knock-in allele and a floxed allele of LKB1 (LKB1fl/fl). KRA-533 (20 mg/kg/d) or vehicle control was administered i.p. starting at 6 weeks post AdeCre delivery. After treatment for 8 weeks, mice were euthanized, and lung tumors were analyzed as described above.
compound,measurement,setting,value
"O=C(CBr)NCCCCc1ccc(C(=O)O)cc1 [KRA-533, 4-(4-(2-bromoacetamido)butyl)benzoic acid]","activity against human lung cancer cells (cytotoxicity, SRB assay)",human lung cancer cells,the most potent activity against human lung cancer cells
same,"cell growth suppression (colony formation), KRAS mutant versus non-mutant cell lines",NSCLC cells [1],relatively more sensitive to KRA-533-mediated cell growth suppression than those without KRAS mutation
same,cell proliferation,NSCLC cells [2]; various NSCLC cells,suppression of cell proliferation
same,"sensitivity of cell proliferation, KRAS mutant cells versus H292","NSCLC cells [2]; A549, H157, Calu-1 vs H292",more sensitive to KRA-533 than H292 cells without KRAS mutation
same,"binding (thermal shift), KRAS K117A",KRAS K117A,failed to bind
same,"binding (thermal shift), AA (S17A/K117A) KRAS",KRAS S17A/K117A (AA),failed to bind
same,"KRAS activity (liquid scintillation), KRAS G13D",KRAS G13D,further enhanced the activities of active KRAS mutants
same,LC3-II,[3],dose-dependent increase of LC3-II
same,PARP cleavage,[3],increased
same,levels of pERK,[3],increased levels
same,p62,[3],dose-dependent decrease of p62
same,ratio of active caspase 3/procaspase 3,[3],increased
same,apoptotic cell death (Annexin V/PI),"[4]; 0, 5, 10, 15 μM, 48 h",leading to apoptotic cell death
same,"sensitivity to KRAS activation, induction of apoptosis and autophagy, KRAS mutant cells versus H292","[4]; A549, H157 and Calu-1 vs H292, 48 h",significantly more sensitive than H292 cells without KRAS mutation
same,cell sensitivity to apoptotic and autophagic cell death after knockdown of mutant KRAS,A549 cells,significantly reduced cell sensitivity to the induction of apoptotic and autophagic cell death
same,tumor growth,"[5]; 20 mg/kg/d i.p. from 6 weeks post AdeCre, 8 weeks",significantly suppressed tumor growth
same,survival,"[5]; 20 mg/kg/d i.p., up to 8 weeks",prolonged survival
